The results in this text go back to ChEMBL document CHEMBL1157188, “Structure-activity relationship of truncated analogs of caprazamycins as potential anti-tuberculosis agents” (2008).

Structures are written as SMILES. Values after ≈ are worked out from the molar mass of the structure shown.

In the first assay the test system is Mycobacterium tuberculosis. Put plainly: Antimicrobial activity against Mycobacterium tuberculosis H37Rv by almar blue assay. The class given is functional.
`CCCCCCCCCCCCCCCC(=O)OC[C@H](NC(=O)[C@@H](N)[C@H](O[C@@H]1O[C@H](CN)[C@@H](O)[C@H]1O)[C@H]1O[C@@H](n2ccc(=O)[nH]c2=O)[C@H](O)[C@@H]1O)C(=O)O` gave an MIC50 of 6.25 µg/mL (≈ 8.08 µM).

Consider `CCCCCCCCCCCCCCCC(=O)O[C@H]1CN(C)[C@@H]([C@H](O)[C@H]2O[C@@H](n3ccc(=O)[nH]c3=O)[C@H](O)[C@@H]2O)C(=O)N(C)[C@@H]1C(=O)O`, for which the MIC50 is greater than 100 µg/mL.

`CCCCCCCCCCCCCCCC(=O)O[C@H]1CN(C)[C@@H]([C@@H](C)O[C@@H]2O[C@H](CN)[C@@H](O)[C@H]2O)C(=O)N(C)[C@@H]1C(=O)O` gave an MIC50 greater than 100 µg/mL. `CN1C[C@H](O)[C@@H](C(=O)O)N(C)C(=O)[C@@H]1[C@H](O[C@@H]1O[C@H](CN)[C@@H](O)[C@H]1O)[C@H]1O[C@@H](n2ccc(=O)[nH]c2=O)[C@H](O)[C@@H]1O` [CAPRAZOL]: the MIC50 is greater than 100 µg/mL. In the case of `CCCCCCCCCCCCCCCC(=O)O[C@H]1CN(C)[C@@H]([C@H](O[C@@H]2O[C@H](CN)[C@@H](O)[C@H]2O)[C@H]2O[C@@H](n3ccc(=O)[nH]c3=O)[C@H](O)[C@@H]2O)C(=O)N(C)[C@@H]1C(=O)O` [PALMITOYL CAPRAZOL], the MIC50 is 2.5 µg/mL (≈ 3.07 µM).

For a further assay, the system named is Mycolicibacterium smegmatis. Put plainly: Antimicrobial activity against Mycobacterium smegmatis. The class given is functional.
For `CO[C@@H]1[C@@H](OC)[C@H](C)O[C@@H](OC(=O)C[C@@H](C)CC(=O)O[C@@H](CCCCCCCCCC(C)C)CC(=O)O[C@H]2CN(C)[C@@H]([C@H](O[C@@H]3O[C@H](CN)[C@@H](O)[C@H]3O)[C@H]3O[C@@H](n4ccc(=O)[nH]c4=O)[C@H](O)[C@@H]3O)C(=O)N(C)[C@@H]2C(=O)O)[C@@H]1OC`, the minimal inhibitory concentration (MIC) was determined as 1.56 µg/mL (≈ 1.38 µM). The same measure, in the same setting: to `CCCCCCCCCCCCCCCC(=O)O[C@H]1CN(C)[C@@H]([C@H](O[C@@H]2O[C@H](CN)[C@@H](O)[C@H]2O)[C@H]2O[C@@H](n3ccc(=O)[nH]c3=O)[C@H](O)[C@@H]2O)C(=O)N(C)[C@@H]1C(=O)O` [PALMITOYL CAPRAZOL] belongs 6.25 µg/mL (≈ 7.68 µM).

In general, MIC50 refers to the lowest concentration that inhibits either 50% of growth or 50% of the strains tested, depending on the study. A high value points to lower susceptibility. In general, MIC refers to the lowest concentration found to suppress growth.
